Experimental data: patent US20200399222A1, “PICOLINAMIDES AS FUNGICIDES” (Dow AgroSciences LLC, priority 2018, published 2020)
Read-outs that look alike come from different tables or passages of the source.

How the values were obtained:
[1] = tested on: Zymoseptoria tritici; experiment: Leaf blotch of wheat (SEPTTR) disease control on wheat seedlings; assay type: in vivo; conditions: High volume application, 100 ppm
Description: Example A: Evaluation of Fungicidal Activity: Leaf Blotch of Wheat (Zymoseptoria tritici; Bayer Code […]) Technical grades of materials were dissolved in acetone, which were then mixed with nine volumes of water containing 110 ppm Triton X-100. The fungicide solutions were applied onto wheat seedlings using an automated booth sprayer to run-off. All sprayed plants were allowed to air dry prior to further handling. All fungicides were evaluated using the aforementioned method for their activity vs. all target diseases, unless stated otherwise. Wheat leaf blotch and brown rust activity were also evaluated using track spray applications, in which case the fungicides were formulated as EC formulations, containing 0.1% Trycol 5941 in the spray solutions. Wheat plants (variety Yuma) were grown from seed in a greenhouse in 50% mineral soil/50% soil-less Metro mix until the first leaf was fully emerged, with 7-10 seedlings per pot. These plants were inoculated with an aqueous spore suspension of Zymoseptoria tritici either prior to or after fungicide treatments. After inoculation the plants were kept in 100% relative humidity (one day in a dark dew chamber followed by two to three days in a lighted dew chamber at 20° C.) to permit spores to germinate and infect the leaf. The plants were then transferred to a greenhouse set at 20° C. for disease to develop. When disease symptoms were fully expressed on the 1st leaves of untreated plants, infection levels were assessed on a scale of 0 to 100 percent disease severity. Percent disease control was calculated using the ratio of disease severity on treated plants relative to untreated plants.

[2] = tested on: Puccinia triticina; experiment: Wheat brown rust (PUCCRT) disease control on wheat seedlings; assay type: in vivo; conditions: High volume application, 100 ppm
Description: Technical grades of materials were dissolved in acetone, which were then mixed with nine volumes of water containing 110 ppm Triton X-100. The fungicide solutions were applied onto wheat seedlings using an automated booth sprayer to run-off. All sprayed plants were allowed to air dry prior to further handling. All fungicides were evaluated using the aforementioned method for their activity vs. all target diseases, unless stated otherwise. Wheat leaf blotch and brown rust activity were also evaluated using track spray applications, in which case the fungicides were formulated as EC formulations, containing 0.1% Trycol 5941 in the spray solutions. Example B: Evaluation of Fungicidal Activity: Wheat Brown Rust (Puccinia triticina; Synonym: Puccinia recondita f. sp. tritici; Bayer Code PUCCRT) Wheat plants (variety Yuma) were grown from seed in a greenhouse in 50% mineral soil/50% soil-less Metro mix until the first leaf was fully emerged, with 7-10 seedlings per pot. These plants were inoculated with an aqueous spore suspension of Puccinia triticina either prior to or after fungicide treatments. After inoculation the plants were kept in a dark dew room at 22° C. with 100% relative humidity overnight to permit spores to germinate and infect the leaf. The plants were then transferred to a greenhouse set at 24° C. for disease to develop. Fungicide formulation, application and disease assessment followed the procedures as described in the Example A.

[3] = 24 h, 1 Day Protectant, read-out: SEPTTR disease control rating, 1DP
[4] = 72 h, 3 Day Curative, read-out: SEPTTR disease control rating, 3DC
[5] = 24 h, 1 Day Protectant, read-out: PUCCRT disease control rating, 1DP
[6] = 72 h, 3 Day Curative, read-out: PUCCRT disease control rating, 3DC

SMILES | pest or weed control at 100 ppm [1, 3] | pest or weed control at 100 ppm [1, 4] | pest or weed control at 100 ppm [2, 5] | pest or weed control at 100 ppm [2, 6]
COc1ccnc(C(=O)N[C@H](C)C(=O)O[C@@H](C)[C@H](C)c2ccc(F)cc2C)c1O [Example 149] | < 80% | < 80% | < 0% | < 0%
COc1ccnc(C(=O)N[C@H](C)C(=O)O[C@@H](C)[C@H](C)c2ccccc2C)c1O [Example 150] | < 80% | < 80% | < 0% | < 80%
COc1ccnc(C(=O)N[C@H](C)C(=O)O[C@@H](C)[C@@H](C)c2ccc(F)cc2)c1O [Example 151] | < 80% | < 80% | < 80% | < 0%
COc1ccc([C@H](C)[C@H](C)OC(=O)[C@@H](C)NC(=O)c2nccc(OC)c2O)c(C)c1 [Example 152] | < 80% | < 80% | > 80% | < 80%
COc1ccnc(C(=O)N[C@H](C)C(=O)O[C@H](C)[C@H](C)c2ccc(F)cc2C)c1O [Example 153] | < 80% | < 80% | < 80% | < 80%
COc1ccnc(C(=O)N[C@H](C)C(=O)O[C@H](C)[C@@H](C)c2ccc(F)cc2C)c1O [Example 154] | < 80% | < 80% | < 0% | < 0%
COc1ccnc(C(=O)N[C@H](C)C(=O)O[C@H](C)[C@@H](C)c2ccccc2C)c1O [Example 155] | < 80% | < 80% | < 80% | < 80%
COc1ccnc(C(=O)N[C@H](C)C(=O)O[C@H](C)[C@H](C)c2ccc(F)cc2)c1O [Example 156] | < 80% | < 80% | < 0% | < 80%
COc1ccc([C@@H](C)[C@@H](C)OC(=O)[C@@H](C)NC(=O)c2nccc(OC)c2O)c(C)c1 [Example 157] | < 80% | < 80% | < 80% | < 0%
COc1ccnc(C(=O)N[C@@H](C)C(=O)O[C@@H](C)[C@@H](C)C2CCCC2)c1O [Example 160] | < 80% | < 80% | < 80% | > 80%
COc1ccnc(C(=O)N[C@@H](C)C(=O)O[C@H](C)[C@H](C)c2ccccc2C(F)(F)F)c1O [Example 161] | < 80% | < 80% | < 0% | < 0%
COc1ccnc(C(=O)N[C@@H](C)C(=O)O[C@H](C)[C@H](C)c2ccc(F)cc2C(F)(F)F)c1O [Example 162] | < 80% | < 80% | < 0% | < 0%
COc1ccnc(C(=O)N[C@@H](C)C(=O)O[C@H](C)[C@H](C)C2CCCC2)c1O [Example 163] | < 80% | < 80% | < 80% | < 80%
COc1ccnc(C(=O)N[C@@H](C)C(=O)OC(C)C(C)c2c(C)cccc2C)c1O (some centres unmarked) [Example 164] | < 80% | > 80% | > 80% | > 80%
